Measured values: US12083094B2, “Cannabinoid composition and methods of treatment using the same” (CANNPAL ANIMAL THERAPEUTICS LIMITED, priority 2018, dated 2024)
“And” between values parts separate entries of the source, which are not always exact repeats. Equal entries are not always repeated.

Test: Blood sampling for THC and CBD plasma concentration after single oral dosing
Conditions: for concentration at 12 h: 12 hours post administration; for AUC: AUC for CBD concentration, canine
Experimental: Two compositions, IVP1 and IVP2, were administered in varying amounts in the study.
Dosage volumes were calculated prior to Day 0, to provide the target dosage in mg/kg bodyweight based on actual dog bodyweights and IVP active ingredient composition based on the Certificates of Analysis.
Blood samples of approximately 5 mL were collected at each drug concentration sampling time-point from each animal using 22-gauge needles and 5 mL syringes.
The data points from Table 4 and Table 5 were also plotted and these graphs are set out in FIGS. 1-16.

C=C(C)[C@@H]1CCC(C)=C[C@H]1c1c(O)cc(CCCCC)cc1O [CBD, Cannabidiol]
concentration at 32 h (dog, plasma, oral, CBD concentration in blood plasma, mean of dogs 5-8, 0.24 mg/kg CBD + 0.12 mg/kg THC oral once, 32 h): 0.34 ng/mL
concentration at 48 h (dog, plasma, oral, CBD concentration in blood plasma, mean of dogs 5-8, 0.24 mg/kg CBD + 0.12 mg/kg THC oral once, 48 h): 0.13 ng/mL
concentration at 72 h (dog, plasma, oral, CBD concentration in blood plasma, mean of dogs 5-8, 0.24 mg/kg CBD + 0.12 mg/kg THC oral once, 72 h): 0 ng/mL
concentration at 16 h (dog, plasma, oral, CBD concentration recorded in subjects, 16 hours post administration): 0.26 ng/mL
concentration at 32 h (dog, plasma, oral, CBD concentration recorded in subjects, 32 hours post administration): 0.28 ng/mL
concentration at 12 h (dog, plasma, oral, highest level of CBD recorded): 0.88 ng/mL
concentration at 12 h (dog, plasma, oral, lowest level of CBD recorded in a subject): 0.23 ng/mL
half-life (dog, plasma, po): 12.6 h
AUC (dog, plasma, po, 0.12 mg/kg, 0.12 mg/kg CBD in combination with 0.24 mg/kg THC): 30 to 50 ng·h/mL
Cmax (dog, plasma, po, 0.24 mg/kg): 5 to 69 ng/mL
AUC (dog, plasma, po, 0.24 mg/kg, 0.24 mg/kg CBD in combination with 0.12 mg/kg THC): 95 to 110 ng·h/mL
CBD concentration in blood plasma (individual dogs 1-4, 0.12 mg/kg CBD + 0.24 mg/kg THC oral once, 0 h): 0 ng/mL
CBD concentration in blood plasma (individual dogs 1-4, 0.12 mg/kg CBD + 0.24 mg/kg THC oral once, 0.67 h): 15.60 ng/mL and 18.10 ng/mL and 5.26 ng/mL and 10.10 ng/mL
CBD concentration in blood plasma (individual dogs 1-4, 0.12 mg/kg CBD + 0.24 mg/kg THC oral once, 1 h): 12.00 ng/mL and 13.60 ng/mL and 5.99 ng/mL and 13.10 ng/mL
CBD concentration in blood plasma (individual dogs 1-4, 0.12 mg/kg CBD + 0.24 mg/kg THC oral once, 1.5 h): 7.99 ng/mL and 9.07 ng/mL and 9.84 ng/mL
CBD concentration in blood plasma (individual dogs 1-4, 0.12 mg/kg CBD + 0.24 mg/kg THC oral once, 2 h): 4.48 ng/mL and 8.08 ng/mL and 8.72 ng/mL
CBD concentration in blood plasma (individual dogs 1-4, 0.12 mg/kg CBD + 0.24 mg/kg THC oral once, 3 h): 2.83 ng/mL and 2.33 ng/mL and 5.83 ng/mL and 6.25 ng/mL
CBD concentration in blood plasma (individual dogs 1-4, 0.12 mg/kg CBD + 0.24 mg/kg THC oral once, 4 h): 1.95 ng/mL and 1.24 ng/mL and 4.08 ng/mL and 4.31 ng/mL
CBD concentration in blood plasma (individual dogs 1-4, 0.12 mg/kg CBD + 0.24 mg/kg THC oral once, 6 h): 1.56 ng/mL and 0.76 ng/mL and 2.99 ng/mL and 2.75 ng/mL
CBD concentration in blood plasma (individual dogs 1-4, 0.12 mg/kg CBD + 0.24 mg/kg THC oral once, 8 h): 1.12 ng/mL and 0.53 ng/mL and 1.23 ng/mL and 2.32 ng/mL
CBD concentration in blood plasma (individual dogs 1-4, 0.12 mg/kg CBD + 0.24 mg/kg THC oral once, 12 h): 0.48 ng/mL and 0.23 ng/mL and 0.37 ng/mL and 0.55 ng/mL
CBD concentration in blood plasma (individual dogs 1-4, 0.12 mg/kg CBD + 0.24 mg/kg THC oral once, 16 h): 0.00 ng/mL (2×) and 0.26 ng/mL and 0.36 ng/mL
CBD concentration in blood plasma (individual dogs 1-4, 0.12 mg/kg CBD + 0.24 mg/kg THC oral once, 24 h): 0.00 ng/mL and 0.23 ng/mL
CBD concentration in blood plasma (individual dogs 5-8, 0.24 mg/kg CBD + 0.12 mg/kg THC oral once, 0 h): 0 ng/mL
CBD concentration in blood plasma (individual dogs 5-8, 0.24 mg/kg CBD + 0.12 mg/kg THC oral once, 0.67 h): 28.70 ng/mL and 28.10 ng/mL and 10.20 ng/mL and 53.40 ng/mL
CBD concentration in blood plasma (individual dogs 5-8, 0.24 mg/kg CBD + 0.12 mg/kg THC oral once, 1 h): 35.20 ng/mL and 20.10 ng/mL and 18.90 ng/mL and 69.10 ng/mL
CBD concentration in blood plasma (individual dogs 5-8, 0.24 mg/kg CBD + 0.12 mg/kg THC oral once, 1.5 h): 33.20 ng/mL and 27.00 ng/mL and 12.70 ng/mL and 34.60 ng/mL
CBD concentration in blood plasma (individual dogs 5-8, 0.24 mg/kg CBD + 0.12 mg/kg THC oral once, 2 h): 14.90 ng/mL and 12.60 ng/mL and 20.30 ng/mL
CBD concentration in blood plasma (individual dogs 5-8, 0.24 mg/kg CBD + 0.12 mg/kg THC oral once, 3 h): 6.33 ng/mL and 6.79 ng/mL and 7.66 ng/mL
CBD concentration in blood plasma (individual dogs 5-8, 0.24 mg/kg CBD + 0.12 mg/kg THC oral once, 4 h): 4.07 ng/mL and 4.40 ng/mL and 4.36 ng/mL
CBD concentration in blood plasma (individual dogs 5-8, 0.24 mg/kg CBD + 0.12 mg/kg THC oral once, 6 h): 3.40 ng/mL and 2.22 ng/mL and 5.74 ng/mL and 1.87 ng/mL
CBD concentration in blood plasma (individual dogs 5-8, 0.24 mg/kg CBD + 0.12 mg/kg THC oral once, 8 h): 4.68 ng/mL and 1.23 ng/mL and 4.36 ng/mL and 0.91 ng/mL
CBD concentration in blood plasma (individual dogs 5-8, 0.24 mg/kg CBD + 0.12 mg/kg THC oral once, 12 h): 0.63 ng/mL and 0.85 ng/mL and 0.72 ng/mL
CBD concentration in blood plasma (individual dogs 5-8, 0.24 mg/kg CBD + 0.12 mg/kg THC oral once, 16 h): 0.49 ng/mL and 0.65 ng/mL and 0.47 ng/mL
CBD concentration in blood plasma (individual dogs 5-8, 0.24 mg/kg CBD + 0.12 mg/kg THC oral once, 24 h): 0.28 ng/mL (2×) and 0.46 ng/mL
CBD concentration in blood plasma (individual dogs 5-8, 0.24 mg/kg CBD + 0.12 mg/kg THC oral once, 32 h): 0.39 ng/mL (2×) and 0.32 ng/mL
CBD concentration in blood plasma (individual dogs 5-8, 0.24 mg/kg CBD + 0.12 mg/kg THC oral once, 48 h): 0.00 ng/mL (2×) and 0.22 ng/mL and 0.31 ng/mL
CBD concentration in blood plasma (individual dogs 5-8, 0.24 mg/kg CBD + 0.12 mg/kg THC oral once, 72 h): 0.00 ng/mL
CBD in the subject's blood (up to 72 h after administration): detectable
